Experimental data reported in the supplement of paper PMC6045584.
± gives the standard deviation of the averaged measurements.

compound: O=C(O)C1(C(=O)O)CCC1.[NH2-].[NH2-].[Pt+2] [CARBOPLATIN]; assay: surviving fraction relative to DMSO-only wells; higher = less growth inhibition; conditions: 0.5 nM; exposure time: 5 days
How it was run: (§1)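 Log-phase tumour cell lines, 250–500 cells per well in 384-well plates, received inhibitors at 0.5, 1, 5, 10, 50, 100, 500 and 1000 nM continuously for five days, starting 24 hours after seeding. Viability was quantified with CellTiter-Glo luminescence and normalised to the median of DMSO-only wells to give surviving fraction. Three screens were run per line, and a line stayed in only with replicate Pearson r >0.7 and median Z' >0.3.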

| Test System | surviving fraction |
| --- | --- |
| HCC202 BREAST | 1.19 ± 0.33 |
| SCC47 HEADNECK | 1.21 ± 0.072 |
| SG28 HEADNECK | 1.23 ± 0.042 |
| CME SYNOVIAL | 1.25 ± 0.15 |
| S68 BREAST | 1.08 ± 0.28 |
| HS578T BREAST | 1.06 ± 0.25 |

same assay, conditions: 1 nM; exposure time: 5 days

| Test System | surviving fraction |
| --- | --- |
| HCC202 BREAST | 1.05 ± 0.058 |
| SCC47 HEADNECK | 1.17 ± 0.042 |
| SG28 HEADNECK | 1.1 |
| CME SYNOVIAL | 1.36 ± 0.039 |
| S68 BREAST | 1.01 ± 0.082 |
| HS578T BREAST | 1.04 ± 0.091 |

same assay, conditions: 5 nM; exposure time: 5 days

| Test System | surviving fraction |
| --- | --- |
| HCC202 BREAST | 1.31 ± 0.09 |
| SCC47 HEADNECK | 1.19 ± 0.017 |
| SG28 HEADNECK | 1.07 ± 0.065 |
| CME SYNOVIAL | 1.4 ± 0.047 |
| S68 BREAST | 0.9 ± 0.16 |
| HS578T BREAST | 1.07 ± 0.14 |

same assay, conditions: 10 nM; exposure time: 5 days

| Test System | surviving fraction |
| --- | --- |
| HCC202 BREAST | 1.07 ± 0.36 |
| SCC47 HEADNECK | 1.19 ± 0.071 |
| SG28 HEADNECK | 0.97 ± 0.0014 |
| CME SYNOVIAL | 1.48 ± 0.061 |
| S68 BREAST | 1.4 ± 0.15 |
| HS578T BREAST | 1.12 ± 0.16 |

same assay, conditions: 50 nM; exposure time: 5 days

| Test System | surviving fraction |
| --- | --- |
| HCC202 BREAST | 1.02 ± 0.23 |
| SCC47 HEADNECK | 1.26 ± 0.054 |
| SG28 HEADNECK | 1.024 ± 0.0035 |
| CME SYNOVIAL | 1.35 ± 0.16 |
| S68 BREAST | 1.22 ± 0.6 |
| HS578T BREAST | 0.964 ± 0.055 |

same assay, conditions: 100 nM; exposure time: 5 days

| Test System | surviving fraction |
| --- | --- |
| HCC202 BREAST | 1.14 ± 0.018 |
| SCC47 HEADNECK | 1.21 ± 0.16 |
| SG28 HEADNECK | 1 ± 0.084 |
| CME SYNOVIAL | 1.42 ± 0.024 |
| S68 BREAST | 1.14 ± 0.38 |
| HS578T BREAST | 1.03 ± 0.13 |

same assay, conditions: 500 nM; exposure time: 5 days

| Test System | surviving fraction |
| --- | --- |
| HCC202 BREAST | 1.27 ± 0.4 |
| SCC47 HEADNECK | 1.14 ± 0.019 |
| SG28 HEADNECK | 1.11 ± 0.034 |
| CME SYNOVIAL | 1.3 ± 0.14 |
| S68 BREAST | 1.11 ± 0.21 |
| HS578T BREAST | 0.992 ± 0.17 |

same assay, conditions: 1000 nM; exposure time: 5 days

| Test System | surviving fraction |
| --- | --- |
| HCC202 BREAST | 1.34 ± 0.34 |
| SCC47 HEADNECK | 1.08 ± 0.045 |
| SG28 HEADNECK | 1.18 ± 0.19 |
| CME SYNOVIAL | 1.39 ± 0.082 |
| S68 BREAST | 1.29 ± 0.11 |
| HS578T BREAST | 1 ± 0.076 |

compound: C[C@]1(O)C[C@@H](c2nc(-c3ccc4ccc(-c5ccccc5)nc4c3)c3c(N)nccn32)C1 [OSI-906]; assay: as above; conditions: 0.5 nM; exposure time: 5 days
How it was run: as §1

| Test System | surviving fraction |
| --- | --- |
| HCC202 BREAST | 0.918 ± 0.1 |
| SCC47 HEADNECK | 0.976 ± 0.025 |
| SG28 HEADNECK | 0.829 ± 0.16 |
| CME SYNOVIAL | 0.905 ± 0.26 |
| S68 BREAST | 0.611 ± 0.24 |
| HS578T BREAST | 0.846 ± 0.12 |

same assay, conditions: 1 nM; exposure time: 5 days

| Test System | surviving fraction |
| --- | --- |
| HCC202 BREAST | 0.867 ± 0.2 |
| SCC47 HEADNECK | 0.952 ± 0.046 |
| SG28 HEADNECK | 0.78 ± 0.098 |
| CME SYNOVIAL | 0.854 ± 0.13 |
| S68 BREAST | 0.727 ± 0.17 |
| HS578T BREAST | 0.968 ± 0.16 |

same assay, conditions: 5 nM; exposure time: 5 days

| Test System | surviving fraction |
| --- | --- |
| HCC202 BREAST | 0.966 ± 0.052 |
| SCC47 HEADNECK | 1.04 ± 0.069 |
| SG28 HEADNECK | 0.769 ± 0.16 |
| CME SYNOVIAL | 0.934 ± 0.15 |
| S68 BREAST | 0.797 ± 0.27 |
| HS578T BREAST | 0.865 ± 0.12 |

same assay, conditions: 10 nM; exposure time: 5 days

| Test System | surviving fraction |
| --- | --- |
| HCC202 BREAST | 0.8315 ± 0.0035 |
| SCC47 HEADNECK | 1.02 ± 0.12 |
| SG28 HEADNECK | 0.792 ± 0.02 |
| CME SYNOVIAL | 0.973 ± 0.075 |
| S68 BREAST | 0.721 ± 0.37 |
| HS578T BREAST | 0.846 ± 0.049 |

same assay, conditions: 50 nM; exposure time: 5 days

| Test System | surviving fraction |
| --- | --- |
| HCC202 BREAST | 1.1 ± 0.021 |
| SCC47 HEADNECK | 1.091 ± 0.0056 |
| SG28 HEADNECK | 0.88 ± 0.06 |
| CME SYNOVIAL | 1.08 ± 0.058 |
| S68 BREAST | 1.19 ± 0.28 |
| HS578T BREAST | 1.09 ± 0.13 |

same assay, conditions: 100 nM; exposure time: 5 days

| Test System | surviving fraction |
| --- | --- |
| HCC202 BREAST | 1.07 ± 0.15 |
| SCC47 HEADNECK | 1.07 ± 0.062 |
| SG28 HEADNECK | 0.867 ± 0.089 |
| CME SYNOVIAL | 1.14 ± 0.21 |
| S68 BREAST | 1.06 ± 0.21 |
| HS578T BREAST | 0.931 ± 0.19 |

same assay, conditions: 500 nM; exposure time: 5 days

| Test System | surviving fraction |
| --- | --- |
| HCC202 BREAST | 0.862 ± 0.18 |
| SCC47 HEADNECK | 1 ± 0.011 |
| SG28 HEADNECK | 0.692 ± 0.021 |
| CME SYNOVIAL | 0.984 ± 0.095 |
| S68 BREAST | 0.828 ± 0.19 |
| HS578T BREAST | 1.07 ± 0.073 |

same assay, conditions: 1000 nM; exposure time: 5 days

| Test System | surviving fraction |
| --- | --- |
| HCC202 BREAST | 0.839 ± 0.18 |
| SCC47 HEADNECK | 1.04 ± 0.11 |
| SG28 HEADNECK | 0.547 ± 0.034 |
| CME SYNOVIAL | 0.823 ± 0.13 |
| S68 BREAST | 0.756 ± 0.05 |
| HS578T BREAST | 1.15 ± 0.18 |

compound: COCC[n+]1c2c(n(Cc3cnccn3)c1C)C(=O)c1ccccc1C2=O [YM155]; assay: as above; conditions: 0.5 nM; exposure time: 5 days
How it was run: as §1

| Test System | surviving fraction |
| --- | --- |
| HCC202 BREAST | 1.19 ± 0.025 |
| SCC47 HEADNECK | 1.01 ± 0.13 |
| SG28 HEADNECK | 1.07 ± 0.083 |
| CME SYNOVIAL | 0.752 ± 0.12 |
| S68 BREAST | 0.884 ± 0.076 |
| HS578T BREAST | 1.03 ± 0.14 |

same assay, conditions: 1 nM; exposure time: 5 days

| Test System | surviving fraction |
| --- | --- |
| HCC202 BREAST | 1.13 ± 0.014 |
| SCC47 HEADNECK | 0.998 ± 0.023 |
| SG28 HEADNECK | 1.17 ± 0.066 |
| CME SYNOVIAL | 0.95 ± 0.22 |
| S68 BREAST | 1.1 ± 0.45 |
| HS578T BREAST | 1.06 ± 0.19 |

same assay, conditions: 5 nM; exposure time: 5 days

| Test System | surviving fraction |
| --- | --- |
| HCC202 BREAST | 1.34 ± 0.26 |
| SCC47 HEADNECK | 0.916 ± 0.087 |
| SG28 HEADNECK | 0.882 ± 0.025 |
| CME SYNOVIAL | 0.468 ± 0.037 |
| S68 BREAST | 0.674 ± 0.092 |
| HS578T BREAST | 0.993 ± 0.19 |

same assay, conditions: 10 nM; exposure time: 5 days

| Test System | surviving fraction |
| --- | --- |
| HCC202 BREAST | 1.31 ± 0.22 |
| SCC47 HEADNECK | 0.435 ± 0.069 |
| SG28 HEADNECK | 0.631 ± 0.05 |
